The data set in a line: Measurement of log P values by HPLC on reversed phase columns (EEC directive 79/831 Annex V.A8; methods [a] pH 2.3, [b] pH 2.7, [c] pH 7.8). The format is physicochemical. The protocol: Measurement of log P-values:
Measurement of log P values was performed according EEC directive 79/831 Annex V.A8 by HPLC (High Performance Liquid Chromatography) on reversed phase columns with the following methods:
^[a] Measurement was done at pH 2.3 with 0.1% phosphoric acid and acetonitrile as eluent with a linear gradient from 10% acetonitrile to 95% acetonitrile.
^[b] measurement of LC-MS was done at pH 2.7 with 0.1% formic acid in water and with acetonitrile (contains 0.1% formic acid) as eluent with a linear gradient from 10% acetonitrile to 95% acetonitrile.
^[c] Measurement with LC-MS was done at pH 7.8 with 0.001 molar ammonium hydrogen carbonate solution in water as eluent with a linear gradient from 10% acetonitrile to 95% acetonitrile.
Calibration was done with not branched alkan2-ones (with 3 to 16 carbon atoms) with known log P-values (measurement of log P values using retention times with linear interpolation between successive alkanones).. lambda-maX-values were determined using UV-spectra from 200 nm to 400 nm and the peak values of the chromatographic signals.

[1] abbreviates: method [b]: LC-MS at pH 2.7, 0.1% formic acid in water / acetonitrile.
Where [2] appears, read: method [c]: LC-MS at pH 7.8, 0.001 molar ammonium hydrogen carbonate in water / acetonitrile.
The mark [3] stands for this setting: method [b]: LC-MS, pH 2.7, 0.1% formic acid in water / acetonitrile.
Where [4] appears, read: method [c]: LC-MS, pH 7.8, 0.001 molar ammonium hydrogen carbonate / acetonitrile.
The mark [5] stands for this setting: method [a]: HPLC, pH 2.3, 0.1% phosphoric acid / acetonitrile.

`COC(c1ccc(Cl)cc1Cl)C1(NC(=O)c2ccccc2I)CC1` (stereo not shown) [Compound 152]: the “log P” value runs as follows: under setting [1], 3.92^[b]; under setting [2], 3.88^[c];. On to `COC(c1ccc(Cl)cc1Cl)C(C)N(C(=O)c1cccnc1C(F)F)C1CC1` (stereo not shown) [Compound 171], for which, under setting [1], the “log P” value is 3.92^[b]. Consider `COC(c1ccc(Cl)cc1Cl)C(C)N(C(=O)c1ncc(Cl)cc1C(F)(F)F)C1CC1` (stereo not shown) [Compound 159], for which, under setting [1], the “log P” value was 5.39^[b]. On to `CCC(NC(=O)c1cccnc1C(F)F)C(OC)c1ccc(Cl)cc1Cl` (stereo not shown) [Compound 90], for which the logP under setting [3] was 3.35^[b]. Turning to `COC(CNC(=O)c1cccnc1Cl)c1cc(Cl)cc(Cl)c1` (stereo not shown) [Compound 118], the “log P” value under setting [1] is 2.82^[b]. In the case of `COC(c1ccc(Cl)cc1Cl)C1(NC(=O)c2c(F)cccc2F)CC1` (stereo not shown) [Compound 150], the “log P” value under setting [1] is 3.57^[b] and the “log P” value under setting [2] is 3.53^[c];. On to `COC(CN(C(=O)c1cccnc1Cl)C1CC1)c1ccc(Cl)cc1Cl` (stereo not shown) [Compound 167], for which the “log P” value under setting [1] is 3.76^[b]. On to `COC(CNC(=O)c1cn(C)nc1C(F)F)c1ccccc1` (stereo not shown) [Compound 16], for which, under setting [3], the logP was 1.93^[b]. For the compound `COC(c1ccc(Cl)cc1)C(C)(C)NC(=O)c1ccccc1C(F)(F)F` (stereo not shown) [Compound 85], the logP by setting is: under setting [3], 4.25^[b]; under setting [4], 3.99^[c];.

Regarding `COC(CNC(=O)c1c(C(F)F)nn(C)c1Cl)c1cc(Cl)cc(Cl)c1` (stereo not shown) [Compound 40], the logP under setting [3] is 3.55^[b]. In the case of `COC(c1ccc(Cl)cc1Cl)C(C)(C)NC(=O)c1c(F)cccc1F` (stereo not shown) [Compound 77], the logP is 4.29^[b] under setting [3] and 4.24^[c]; under setting [4]. For the compound `CCOC(c1ccc(Cl)cc1Cl)C(C)NC(=O)c1c(C(F)F)nn(C)c1Cl` (stereo not shown) [Compound 46], the logP under setting [3] is 4.46^[b]. With `COC(c1ccc(Cl)cc1)C(C)(C)NC(=O)c1c(F)cccc1F` (stereo not shown) [Compound 82], the logP is 3.78^[b] under setting [3] and 3.79^[c]; under setting [4].

With `COC(c1ccc(Cl)cc1Cl)C1(NC(=O)c2cc(C)nn2C)CC1` (stereo not shown) [compound 125], under setting [1], the “log P” value was 3.05^[b]. With `COC(c1ccc(Cl)cc1)C(C)NC(=O)c1ccsc1` (stereo not shown) [Compound 62], under setting [3], the logP is 2.84^[b]. Still for that read-out and setting: to `COC(c1ccc(Cl)cc1Cl)C(C)NC(=O)c1cn(C)nc1C(F)F` (stereo not shown) [compound 17] belongs 3.25^[b]. Regarding `CCOC(c1ccc(Cl)cc1Cl)C(C)NC(=O)c1ccccc1I` (stereo not shown) [Compound 197], the “log P” value is 4.51^[b] under setting [1] and 4.56^[c]; under setting [2].

Turning to `COC(c1ccc(Cl)cc1Cl)C1(NC(=O)c2cccnc2C(F)F)CC1` (stereo not shown) [Compound 97], the logP under setting [3] was 3.06^[b]. On to `COC(c1ccccc1Cl)C(C)NC(=O)c1ccccc1C(F)(F)F` (stereo not shown) [Compound 145], for which the “log P” value by setting is: under setting [1], 3.45^[b]; under setting [2], 3.41^[c];. With `COC(CNC(=O)c1c(C(F)F)nn(C)c1Cl)c1ccc(Cl)cc1Cl` (stereo not shown) [Compound 44], under setting [3], the logP was 3.48^[b]. Take `CCOC(c1ccc(Cl)cc1Cl)C(C)NC(=O)c1ccccc1Br` (stereo not shown) [Compound 200]: the “log P” value by setting is: under setting [1], 4.43^[b]; under setting [2], 4.39^[c];. Take `COC(c1ccc(Cl)cc1Cl)C1(NC(=O)c2c(F)cccc2C(F)(F)F)CC1` (stereo not shown) [Compound 149]: the “log P” value runs as follows: under setting [1], 4.00^[b]; under setting [2], 3.95^[c];. Take `C#CCOC(c1ccc(Cl)cc1)C(C)(C)NC(=O)c1sccc1C` (stereo not shown) [compound 4]: the logP under setting [5] was 4.22^[a].

`COC(c1cc(Cl)cc(Cl)c1)C(C)NC(=O)c1c(C(F)F)nn(C)c1Cl` (stereo not shown) [Compound 42]: the logP under setting [3] is 3.92^[b]. Turning to `COC(c1ccc(Cl)cc1)C(C)NC(=O)c1ccccc1I` (stereo not shown) [Compound 137], the “log P” value is 3.44^[b] under setting [1] and 3.42^[c]; under setting [2]. On to `COC(c1ccc(Cl)cc1Cl)C1(NC(=O)c2ccccc2[N+](=O)[O-])CC1` (stereo not shown) [Compound 211], for which the “log P” value by setting is: under setting [1], 3.33^[b]; under setting [2], 3.26^[c];. For `COC(c1ccc(Cl)cc1Cl)C1(NC(=O)c2ccccc2Br)CC1` (stereo not shown) [Compound 151], in that order: 3.82^[b] and 3.76^[c];. Consider `Cc1ccc(COC(CNC(=O)c2sccc2C)c2ccc(Cl)cc2)cc1` (stereo not shown) [compound 5], for which the logP under setting [5] was 4.62^[a]. As for `COC(c1ccc(Cl)cc1Cl)C(C)NC(=O)c1cc(C)nn1C(F)F` (stereo not shown) [compound 115], under setting [3], the logP is 3.73^[b].

Regarding `COC(c1ccc(Cl)cc1)C(C)NC(=O)c1c(F)cccc1F` (stereo not shown) [Compound 132, N-[1-(4-chlorophenyl)-1-methoxypropan-2-yl]-2,6-difluorobenzamide], where the note is “method [b]: LC-MS at pH 2.7, 0.1% formic acid in water / acetonitrile, read-out: log P”, the chromatographic logP was 3.12.

For `COC(CNC(=O)c1cccnc1C(F)F)c1cc(Cl)cc(Cl)c1` (stereo not shown) [Compound 117], the “log P” value under setting [1] is 2.88^[b]. With `COC(c1ccc(F)cc1)C(C)NC(=O)c1c(F)cccc1C(F)(F)F` (stereo not shown) [Compound 189], the “log P” value by setting is: under setting [1], 3.24^[b]; under setting [2], 3.19^[c];.

`CCC(NC(=O)c1c(C(F)F)nn(C)c1F)C(OC)c1ccc(Cl)cc1Cl` (stereo not shown) [Compound 49]: under setting [3], the logP is 3.94^[b]. As for `COC(c1ccc(Cl)cc1Cl)C(C)(C)NC(=O)c1ccccc1Cl` (stereo not shown) [Compound 75], the logP is 4.59^[b] under setting [3] and 4.54^[c]; under setting [4]. Take `C#CCOC(c1ccc(Cl)c(Cl)c1)C(C)(C)NC(=O)c1sccc1C` (stereo not shown) [compound 3]: the logP under setting [5] was 4.58^[a].

As to `COC(c1ccccc1Cl)C(C)NC(=O)c1ccccc1[N+](=O)[O-]` (stereo not shown) [Compound 138], the “log P” value is 2.82^[b] under setting [1] and 2.78^[c]; under setting [2]. As to `COC(c1ccc(F)cc1)C(C)NC(=O)c1cccnc1Cl` (stereo not shown) [Compound 184], the “log P” value is, setting by setting: under setting [1], 2.25^[b]; under setting [2], 2.23^[c];.

Take `COC(CNC(=O)c1c(F)cccc1F)c1ccc(Cl)cc1` (stereo not shown) [Compound 72]: the logP is, setting by setting: under setting [3], 2.81^[b]; under setting [4], 2.79^[c];. With `COC(c1ccc(F)cc1)C(C)NC(=O)c1ccccc1C(F)(F)F` (stereo not shown) [Compound 190], under setting [2], the “log P” value is 3.16^[c]. With `COC(CN(C(=O)C1=C(C)OCCS1)C1CC1)c1ccc(Cl)cc1Cl` (stereo not shown) [Compound 169], the “log P” value under setting [1] is 4.11^[b]. For `CCOC(c1ccc(Cl)cc1Cl)C(C)NC(=O)c1ccccc1F` (stereo not shown) [Compound 195], the “log P” value runs as follows: under setting [1], 4.66^[b]; under setting [2], 4.65^[c];. Take `CCC(NC(=O)c1cccnc1C(F)(F)F)C(OC)c1ccc(Cl)cc1Cl` (stereo not shown) [Compound 91]: the logP under setting [3] is 3.70^[b]. Consider `CCOC(c1ccc(Cl)cc1Cl)C(C)NC(=O)c1ccccc1Cl` (stereo not shown) [Compound 201], for which the “log P” value was 4.35^[b] under setting [1] and 4.39^[c]; under setting [2]. For the compound `COC(c1ccc(Cl)cc1Cl)C1(NC(=O)c2c(C(F)F)nn(C)c2Cl)CC1` (stereo not shown) [Compound 50], under setting [3], the logP was 3.70^[b].

Regarding `COC(c1ccc(F)cc1)C(C)NC(=O)c1c(F)cccc1F` (stereo not shown) [Compound 185], the “log P” value is, setting by setting: under setting [1], 2.80^[b]; under setting [2], 2.76^[c];.

Consider `COC(c1ccc(F)cc1)C(C)NC(=O)c1ccccc1Br` (stereo not shown) [Compound 186], for which the “log P” value was 2.99^[b] under setting [1] and 2.95^[c]; under setting [2]. For `COC(c1ccc(Cl)cc1Cl)C1(NC(=O)c2ccccc2F)CC1` (stereo not shown) [Compound 155], in that order: 3.78^[b] and 3.75^[c];. With `COC(c1ccc(Cl)cc1Cl)C(C)(C)NC(=O)c1ccccc1C(F)(F)F` (stereo not shown) [Compound 76], the logP is 4.68^[b] under setting [3] and 4.62^[c]; under setting [4]. As to `COC(c1ccc(Cl)cc1Cl)C(C)NC(=O)c1c(F)c(C)nn1C(F)F` (stereo not shown) [compound 114], under setting [3], the logP was 4.57^[b].

Regarding `COC(c1ccc(Cl)cc1)C(C)(C)NC(=O)c1ccccc1Cl` (stereo not shown) [Compound 84], the logP reads like this: under setting [3], 4.12^[b]; under setting [4], 3.87^[c];. The corresponding values for `COC(c1ccc(Cl)cc1)C(C)(C)NC(=O)c1ccccc1F` (stereo not shown) [Compound 83] are 4.24^[b] and 3.99^[c];.

Turning to `CCn1nc(C)c(C)c1C(=O)NC(C)C(OC)c1ccccc1` (stereo not shown) [Compound 55], the logP under setting [3] was 2.71^[b]. In the case of `COC(c1cc(Cl)cc(Cl)c1)C(C)NC(=O)c1nccnc1C(F)(F)F` (stereo not shown) [Compound 95], the logP under setting [3] is 3.74^[b]. Take `COC(c1ccc(Cl)cc1)C(C)(C)NC(=O)c1sccc1Cl` (stereo not shown) [Compound 86]: the logP is 4.72^[b] under setting [3] and 4.43^[c]; under setting [4]. `COC(c1ccc(Cl)cc1Cl)C(C)(C)NC(=O)c1occc1Br` (stereo not shown) [Compound 80]: the logP reads like this: under setting [3], 4.59^[b]; under setting [4], 4.37^[c];. For `COC(c1ccc(Cl)cc1)C(C)(C)NC(=O)c1cccnc1Cl` (stereo not shown) [Compound 81], in that order: 3.24^[b] and 3.23^[c];. Take `COC(CN(C(=O)c1cccnc1C(F)(F)F)C1CC1)c1ccc(Cl)cc1Cl` (stereo not shown) [Compound 166]: the “log P” value under setting [1] was 4.16^[b].

Consider `COC(c1ccc(Cl)cc1)C(C)NC(=O)c1cccnc1Cl` (stereo not shown) [Compound 135], for which the “log P” value reads like this: under setting [1], 2.65^[b]; under setting [2], 2.62^[c];. On to `COC(c1ccc(Cl)cc1Cl)C(C)N(C(=O)C1=C(C)OCCS1)C1CC1` (stereo not shown) [Compound 172], for which the “log P” value under setting [1] was 4.30^[b].
